Test results: PMC9226124, “Macrocycle-stabilization of its interaction with 14-3-3 increases plasma membrane localization and activity of CFTR” (Nature Communications, 2022)
Values joined by “and” are separate entries in the source; they are usually repeats but may differ in a detail not shown here. Equal values may be shown once.

What was measured:
[1] = molecular target: T1, FITC-labeled CFTRpS753pS768 peptide (no 14-3-3) (Homo sapiens, UniProt P13569); experiment: Dose-response FP control assay in the absence of 14-3-3; type: binding; conditions: for FP signal: No 14-3-3; for Polarization in the absence of 14-3-3, background subtracted: replicates
T1 construct: made in house; host or cells: synthetic peptide
Procedure: (§1) The 14-3-3β concentration used for the FP screening assay was 10 μM (dashed line). c HTS FP assay of the Cyclenium library. The samples contain 100 nM of FITC-CFTR_pS753pS768 peptide, 10 μM 14-3-3β, and 50 μM compound. FC-A (100 µM) was added as a positive control and DMSO as the negative control. Hit compounds are defined as a polarization increase which is higher than 20% of the response of FC-A. Red squares are compounds that appeared positive in the negative control without 14-3-3. […] Background polarization was subtracted from all values, n = 3 technical replicates. Compounds selected for further analysis are indicated with an asterisk. e Polarization in the absence of 14-3-3. […] Source data are provided as a Source Data file.
(§2) The FITC-labeled peptides were dissolved in FP buffer (10 mM HEPES pH 7.4, 150 mM NaCl, 0.1% Tween20, 1 mg/mL BSA) to a final concentration of 100 nM or 10 nM. For the dose-response assays, a 14-3-3β concentration of 10 μM was used while titrating the compounds in a two-times dilution series and, for the other assays, a dilution series of 14-3-3β was made with constant concentration of compound. The dilution series were made in 384 Corning Black Round Bottom well plates and their polarization was measured with a Tecan Infinite F500 plate reader (ex. = 485 nm, em. = 535 nm). The method of fitting of the curves was: “log(agonist) vs. response – Variable slope (four parameters)” from GraphPad Prism. The equation is Y = Bottom + (Top-Bottom)/(1 + 10^((LogEC50-X)*HillSlope)).

[2] = molecular target: T2, 14-3-3β/CFTRpS753pS768 complex (Homo sapiens, UniProt P13569+P31946); experiment: Dose-response fluorescence polarization (FP) assay, compound titration; type: binding; conditions: for EC50: 14-3-3β 10 μM, labeled CFTRpS753pS768 100 nM, read-out: EC50; for FP signal: With 14-3-3; for Polarization, background subtracted: 14-3-3 10 μM, peptide 100 nM, replicates
T2 construct: His6 (cleaved yes); made in house; peptide synthetic
Procedure: as §1, with “file. […]” for “file.”
as §2

T1 sequence (P13569 747-774 limits assumed): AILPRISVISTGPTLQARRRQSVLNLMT
T2 sequence (P31946 whole entry): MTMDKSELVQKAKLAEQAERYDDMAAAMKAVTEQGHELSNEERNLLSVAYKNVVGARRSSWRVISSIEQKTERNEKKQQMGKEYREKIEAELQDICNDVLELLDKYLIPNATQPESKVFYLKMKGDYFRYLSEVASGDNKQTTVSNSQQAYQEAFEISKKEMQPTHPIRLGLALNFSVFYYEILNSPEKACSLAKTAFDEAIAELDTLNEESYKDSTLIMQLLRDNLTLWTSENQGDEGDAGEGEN

SMILES: C=CC(C)(C)OC[C@H]1O[C@H](O[C@@H]2C3=C([C@H](C)COC(C)=O)C[C@H](O)[C@]3(C)/C=C3/[C@@H](COC)CC[C@H]3[C@@H](C)[C@H]2O)[C@H](O)[C@@H](OC(C)=O)[C@@H]1O [FC-A, fusicoccin A, reference compound]
- FP signal ([1]; compound 476.8 pM): 1
- FP signal ([1]; compound 953.7 pM): 5
- FP signal ([1]; compound 1.90735e-9 M): 0
- FP signal ([1]; compound 3.8147e-9 M): 3
- FP signal ([1]; compound 7.6294e-9 M): 3
- FP signal ([1]; compound 1.52588e-8 M): 2
- FP signal ([1]; compound 3.05176e-8 M): 2
- FP signal ([1]; compound 6.10352e-8 M): 1
- FP signal ([1]; compound 1.2207e-7 M): 1
- FP signal ([1]; compound 2.44141e-7 M): 2
- FP signal ([1]; compound 4.88281e-7 M): 4
- FP signal ([1]; compound 9.76563e-7 M): 5
- FP signal ([1]; compound 1.95313e-6 M): 6
- FP signal ([1]; compound 3.90625e-6 M): 15
- FP signal ([1]; compound 7.8125e-6 M): 23
- FP signal ([1]; compound 1.5625e-5 M): 37
- FP signal ([1]; compound 3.125e-5 M): 53
- FP signal ([1]; compound 6.25e-5 M): 70
- FP signal ([1]; compound 0.000125 M): 91
- FP signal ([1]; compound 0.00025 M): 104
- FP signal ([1]; compound 0.0005 M): 116
- FP signal ([1]; compound 0.001 M): 133
- Polarization in the absence of 14-3-3, background subtracted ([1]; compound 7.8125e-7 M): 1.367 and 0.6667 and -0.1333
- Polarization in the absence of 14-3-3, background subtracted ([1]; compound 1.5625e-6 M): 0.1667 and 0.6667 and 0.3667
- Polarization in the absence of 14-3-3, background subtracted ([1]; compound 3.125e-6 M): 0.06667 and -0.03333 and 0.6667
- Polarization in the absence of 14-3-3, background subtracted ([1]; compound 6.25e-6 M): 0.06667 and -0.2333 and -0.3333
- Polarization in the absence of 14-3-3, background subtracted ([1]; compound 1.25e-5 M): 0.5667 and 0.6667 (2×)
- Polarization in the absence of 14-3-3, background subtracted ([1]; compound 2.5e-5 M): -0.03333 and 0.6667 and 0.8667
- Polarization in the absence of 14-3-3, background subtracted ([1]; compound 5e-5 M): 1.667 and 1.067 and 1.267
- Polarization in the absence of 14-3-3, background subtracted ([1]; compound 0.0001 M): 1.667 and 1.167 and 2.267
- EC50 [2]: 69.7 µM
- FP signal ([2]; compound 476.8 pM): 1
- FP signal ([2]; compound 953.7 pM): 5
- FP signal ([2]; compound 1.90735e-9 M): 0
- FP signal ([2]; compound 3.8147e-9 M): 3
- FP signal ([2]; compound 7.6294e-9 M): 3
- FP signal ([2]; compound 1.52588e-8 M): 2
- FP signal ([2]; compound 3.05176e-8 M): 2
- FP signal ([2]; compound 6.10352e-8 M): 1
- FP signal ([2]; compound 1.2207e-7 M): 1
- FP signal ([2]; compound 2.44141e-7 M): 2
- FP signal ([2]; compound 4.88281e-7 M): 4
- FP signal ([2]; compound 9.76563e-7 M): 5
- FP signal ([2]; compound 1.95313e-6 M): 6
- FP signal ([2]; compound 3.90625e-6 M): 15
- FP signal ([2]; compound 7.8125e-6 M): 23
- FP signal ([2]; compound 1.5625e-5 M): 37
- FP signal ([2]; compound 3.125e-5 M): 53
- FP signal ([2]; compound 6.25e-5 M): 70
- FP signal ([2]; compound 0.000125 M): 91
- FP signal ([2]; compound 0.00025 M): 104
- FP signal ([2]; compound 0.0005 M): 116
- FP signal ([2]; compound 0.001 M): 133
- Polarization, background subtracted ([2]; compound 7.8125e-7 M): 8.267 (2×) and 9.167
- Polarization, background subtracted ([2]; compound 1.5625e-6 M): 13.6667 (2×) and 15.2667
- Polarization, background subtracted ([2]; compound 3.125e-6 M): 22.4667 and 22.7667 and 24.2667
- Polarization, background subtracted ([2]; compound 6.25e-6 M): 35.6667 and 36.6667 (2×)
- Polarization, background subtracted ([2]; compound 1.25e-5 M): 51.9667 and 52.3667 and 53.1667
- Polarization, background subtracted ([2]; compound 2.5e-5 M): 71.5667 and 71.6667 and 72.5667
- Polarization, background subtracted ([2]; compound 5e-5 M): 88.8667 and 90.2667 and 89.8667
- Polarization, background subtracted ([2]; compound 0.0001 M): 104.867 and 104.367 and 104.267

SMILES: CC1NC(=O)C(CCCNC(=N)N)NC(=O)C2CCCN2Cc2cccc(c2)-c2ccccc2CNC(=O)C(CCCNC(=N)N)NC1=O (stereo not shown) [CY007476]
- FP signal ([1]; compound 476.8 pM): 1
- FP signal ([1]; compound 953.7 pM): 3
- FP signal ([1]; compound 1.90735e-9 M): 2
- FP signal ([1]; compound 3.8147e-9 M): 5
- FP signal ([1]; compound 7.6294e-9 M): 5
- FP signal ([1]; compound 1.52588e-8 M): 4
- FP signal ([1]; compound 3.05176e-8 M): 6
- FP signal ([1]; compound 6.10352e-8 M): 6
- FP signal ([1]; compound 1.2207e-7 M): 3
- FP signal ([1]; compound 2.44141e-7 M): 4
- FP signal ([1]; compound 4.88281e-7 M): 4
- FP signal ([1]; compound 9.76563e-7 M): 5
- FP signal ([1]; compound 1.95313e-6 M): 5
- FP signal ([1]; compound 3.90625e-6 M): 6
- FP signal ([1]; compound 7.8125e-6 M): 10
- FP signal ([1]; compound 1.5625e-5 M): 13
- FP signal ([1]; compound 3.125e-5 M): 24
- FP signal ([1]; compound 6.25e-5 M): 59
- FP signal ([1]; compound 0.000125 M): 124
- FP signal ([1]; compound 0.00025 M): 186
- FP signal ([1]; compound 0.0005 M): 230
- FP signal ([1]; compound 0.001 M): 257
- EC50 [2]: 147 µM
- FP signal ([2]; compound 476.8 pM): 1
- FP signal ([2]; compound 953.7 pM): 3
- FP signal ([2]; compound 1.90735e-9 M): 2
- FP signal ([2]; compound 3.8147e-9 M): 5
- FP signal ([2]; compound 7.6294e-9 M): 5
- FP signal ([2]; compound 1.52588e-8 M): 4
- FP signal ([2]; compound 3.05176e-8 M): 6
- FP signal ([2]; compound 6.10352e-8 M): 6
- FP signal ([2]; compound 1.2207e-7 M): 3
- FP signal ([2]; compound 2.44141e-7 M): 4
- FP signal ([2]; compound 4.88281e-7 M): 4
- FP signal ([2]; compound 9.76563e-7 M): 5
- FP signal ([2]; compound 1.95313e-6 M): 5
- FP signal ([2]; compound 3.90625e-6 M): 6
- FP signal ([2]; compound 7.8125e-6 M): 10
- FP signal ([2]; compound 1.5625e-5 M): 13
- FP signal ([2]; compound 3.125e-5 M): 24
- FP signal ([2]; compound 6.25e-5 M): 59
- FP signal ([2]; compound 0.000125 M): 124
- FP signal ([2]; compound 0.00025 M): 186
- FP signal ([2]; compound 0.0005 M): 230
- FP signal ([2]; compound 0.001 M): 257
